{"source": "paper PMC8322070", "about": "“A novel orally active HDAC6 inhibitor T-518 shows a therapeutic potential for Alzheimer’s disease and tauopathy in mice” (Scientific Reports, 2021)", "system": "P301S tau Tg mice", "assay": "Novel object recognition test", "format": "in vivo, mouse", "details": "1 and 3 mg/kg for 2 weeks", "procedure": "T-518, ACY-738, Ricolinostat, and Tubastatin A were synthesized in Takeda. For in vitro cellular experiments, the compounds were solubilized with DMSO and diluted in the culture medium at the indicated concentrations. For in vivo experiments, the compound was reconstituted in 0.5% methylcellulose and administered orally at the indicated doses. After administration, mouse hippocampus was isolated and homogenized in RIPA extraction buffer (50 mM Tris–HCl, 150 mM NaCl, 1% NP-40, 0.5% sodium deoxycholate, and 0.1% SDS, pH 8.0) supplemented with protease and phosphatase inhibitor cocktail (Thermo Fischer, Waltham, MA, USA). The homogenate was centrifuged at 10,000g for 15 min and the supernatant was taken as the RIPA-soluble fraction.\nThe effect of T-518 on behavioral function was examined using the novel object recognition test: The box and objects used were purchased from BrainScience Idea (Osaka, Japan). The 30 × 30 × 35 cm gray-colored test box was used. The two objects used were pyramidal, white-colored, and ceramic (object A and A′) and cylindrical, silver, and aluminum (object B). In the acquisition phase, the identical objects (objects A and A′) were symmetrically placed in the box. Each animal was placed in the box for 5 min followed by a 24-h retention interval in the home cage. […] Time spent exploring the objects were measured during both phases. […]"}
{"smiles": "O=C1c2cc(-c3nnc(C(F)F)o3)cnc2CN1[C@@H]1CCCC[C@H]1NC(=O)C(F)(F)C(F)(F)F", "note": "[T-518, N-[(1R,2R)-2-{3-[5-(difluoromethyl)-1,3,4-oxadiazol-2-yl]-5-oxo-5H,6H,7H-pyrrolo[3,4-b]pyridin-6-yl}cyclohexyl]-2,2,3,3,3-pentafluoropropanamide]", "values": [{"measurement": "novel object recognition deficit (preference ratio)", "value": "dose-dependently ameliorated"}]}
